# Reference: patent EP0554004A2, “Cephem compounds and antibacterial agents” (KATAYAMA SEIYAKUSYO CO. Ltd., priority 1992, dated 1993)
# Key:
# [1] = system: Enterobacter cloacae ATCC 13407; assay: MIC against standard strains (Test Example 1); assay type: cell-based; conditions: ATCC13407, Muller-Hinton agar, 37°C overnight
# Procedure: (§1) By using each test strain cultured overnight at 37°C in a Muller-Hinton broth, there was prepared a bacterial solution with a bacterial cell population of 1 x 10^6 CFU/mi of the same bouillon. The bacterial solution was inoculated into the Muller-Hinton agar media each containing respectively one test agent and, after overnight incubation at 37°C, the minimum concentration that inhibited growth of the bacteria was determined and shown as MIC also in Table 1.
# (§2) Staphylococcus aureus 167 and Staphylococcus aureus 195 used in the test were MRSA. CTM (cefotiam) and FMOX (flomoxef) were used as control agents.
# [2] = system: Escherichia coli CSH2 (RE45); assay: MIC against standard strains (Test Example 1); assay type: cell-based
# Procedure: as §1, §2
# [3] = system: Proteus mirabilis IFO 3849; assay: MIC against standard strains (Test Example 1); assay type: cell-based; conditions: IFO3849, Muller-Hinton agar, 37°C overnight
# Procedure: as §1, §2
# Proteus vulgalis OX-19 = assay: MIC against standard strains (Test Example 1); assay type: cell-based; conditions: Muller-Hinton agar, 37°C overnight
# Procedure: as §1, §2
# [4] = system: Pseudomonas aeruginosa NCTC 10490; assay: MIC against standard strains (Test Example 1); assay type: cell-based; conditions: NCTC10490, Muller-Hinton agar, 37°C overnight
# Procedure: as §1, §2
# [5] = system: Staphylococcus aureus 209P JC-1; assay: MIC against standard strains (Test Example 1); assay type: cell-based; conditions: Muller-Hinton agar, 37°C overnight
# Procedure: as §1, §2
# clinically isolated MRSA = assay: Antibacterial potency against clinically isolated MRSA (Test Example 2); assay type: cell-based, methicillin-resistant Staphylococcus aureus; conditions: Staphylococcus aureus, 52 strains of clinically isolated MRSA
# Procedure: A test on the antibacterial potency against clinically isolated MRSA was conducted in the following way.
# 52 strains of clinically isolated MRSA were used, and MIC was determined for each of the strains according to the standard method of the Japan Chemotherapical Society as in Test Example 1. The minimum growth inhibitory concentration which inhibited growth of 50% of the strains tested was expressed as MIC50 (µg/ml), and the minimum growth inhibitory concentration which inhibited growth of 90% of the strains was expressed as MIC90 (µg/ml).
# In this test, FMOX (flomoxef), IPM/CS (imipenem/cilastatin), CMZ (cefmetazole), MINO (minocycline) and DMPPC (methicillin) were used as control agents.
# A. calcoaceticos T59 = assay: MIC against standard strains (Test Example 3); assay type: cell-based; conditions: A. calcoaceticos T59 (Test Example 3); read-out: MIC
# In short: (§3)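 Read-out is the minimum concentration preventing visible bacterial growth on drug-containing Mueller-Hinton agar after overnight incubation at 37°C. Inocula were bacterial suspensions at 1 x 10^6 CFU/ml prepared from overnight Mueller-Hinton broth cultures at 37°C.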
# A. faecalis ATCC3750 = assay: MIC against standard strains (Test Example 3); assay type: cell-based; conditions: Alcaligenes faecalis; A. faecalis ATCC3750 (Test Example 3); read-out: MIC
# In short: as §3
# B. subtilis ATCC6633 = assay: MIC against standard strains (Test Example 3); assay type: cell-based; conditions: Bacillus subtilis; B. subtilis ATCC6633 (Test Example 3); read-out: MIC
# In short: as §3
# C. freundii ATCC8090 = assay: MIC against standard strains (Test Example 3); assay type: cell-based; conditions: Citrobacter freundii; C. freundii ATCC8090 (Test Example 3); read-out: MIC
# In short: as §3
# E. cloacae ATCC13407 = assay: MIC against standard strains (Test Example 3); assay type: cell-based; conditions: Enterobacter cloacae; E. cloacae ATCC13407 (Test Example 3); read-out: MIC
# In short: as §3
# E. coli CSH2 (RE45) = assay: MIC against standard strains (Test Example 3); assay type: cell-based; conditions: Escherichia coli
# In short: (§4)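 Strains are grown overnight at 37°C in Mueller-Hinton broth and adjusted to 1 x 10^6 CFU/ml. Suspensions are then inoculated onto Mueller-Hinton agar plates each carrying one test agent, incubated overnight at 37°C, and scored for growth to give the MIC.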
# E. coli CSH2 (RK1) = assay: MIC against standard strains (Test Example 3); assay type: cell-based; conditions: Escherichia coli
# In short: as §4
# E. coli NIHJ JC-2 = assay: MIC against standard strains (Test Example 3); assay type: cell-based; conditions: Escherichia coli, NIHJJC2; E. coli NIHJ JC-2 (Test Example 3); read-out: MIC
# In short: as §3
# K. pneumoniae IFO3317 = assay: MIC against standard strains (Test Example 3); assay type: cell-based; conditions: Klebsiella pneumoniae; K. pneumoniae IFO3317 (Test Example 3); read-out: MIC
# In short: as §3
# K. pneumoniae No. 42 = assay: MIC against standard strains (Test Example 3); assay type: cell-based; conditions: Klebsiella pneumoniae; K. pneumoniae No. 42 (Test Example 3); read-out: MIC
# In short: as §3
# M. Morganii IFO3848 = assay: MIC against standard strains (Test Example 3); assay type: cell-based; conditions: Morganella morganii; M. Morganii IFO3848 (Test Example 3); read-out: MIC
# In short: as §3
# M. luteus ATCC 9341 = assay: MIC against standard strains (Test Example 3); assay type: cell-based; conditions: Micrococcus luteus, ATCC9341; M. luteus ATCC 9341 (Test Example 3); read-out: MIC
# In short: as §3
# P. aeruginosa NCTC10490 = assay: MIC against standard strains (Test Example 3); assay type: cell-based; conditions: Pseudomonas aeruginosa; P. aeruginosa NCTC10490 (Test Example 3); read-out: MIC
# In short: as §3
# P. mirabilis IFO3849 = assay: MIC against standard strains (Test Example 3); assay type: cell-based; conditions: Proteus mirabilis; P. mirabilis IFO3849 (Test Example 3); read-out: MIC
# In short: as §3
# P. vulugaris OX-19 = assay: MIC against standard strains (Test Example 3); assay type: cell-based; conditions: P. vulugaris OX-19 (Test Example 3); read-out: MIC
# In short: as §3
# S. aureus 167 = assay: MIC against standard strains (Test Example 3); assay type: cell-based; conditions: Staphylococcus aureus; S. aureus 167 (MRSA) (Test Example 3); read-out: MIC
# In short: as §3
# S. aureus 195 = assay: MIC against standard strains (Test Example 3); assay type: cell-based; conditions: Staphylococcus aureus; S. aureus 195 (MRSA) (Test Example 3); read-out: MIC
# In short: as §3
# S. aureus 209p JC-1 = assay: MIC against standard strains (Test Example 3); assay type: cell-based; conditions: Staphylococcus aureus; S. aureus 209p JC-1 (Test Example 3); read-out: MIC
# In short: as §3
# S. aureus Smith = assay: MIC against standard strains (Test Example 3); assay type: cell-based; conditions: Staphylococcus aureus; S. aureus Smith (Test Example 3); read-out: MIC
# In short: as §3
# S. epidemidis IAM1296 = assay: MIC against standard strains (Test Example 3); assay type: cell-based; conditions: S. epidemidis IAM1296 (Test Example 3); read-out: MIC
# In short: as §3
# S. marcescens IAM1184 = assay: MIC against standard strains (Test Example 3); assay type: cell-based; conditions: Serratia marcescens; S. marcescens IAM1184 (Test Example 3); read-out: MIC
# In short: as §3
smiles,measurement,setting,value
"CO[C@@]1(NC(=O)CSC(F)F)C(=O)N2C(C(=O)O)=C(CSc3nnnn3CCO)CO[C@@H]21 [FMOX, flomoxef, reference compound]",MIC,[1],25 µg/mL
same,MIC,[2],0.1 µg/mL
same,MIC,[3],0.2 µg/mL
same,MIC,Proteus vulgalis OX-19,0.39 µg/mL
same,MIC,[4],> 100 µg/mL
same,MIC,[5],0.39 µg/mL
same,MIC50,clinically isolated MRSA; concentration inhibiting growth of 50% of the strains (Test Example 2),8.16 µg/mL
same,MIC90,clinically isolated MRSA; concentration inhibiting growth of 90% of the strains (Test Example 2),40.2 µg/mL
same,MIC,A. calcoaceticos T59,50 µg/mL
same,MIC,A. faecalis ATCC3750,0.1 µg/mL
same,MIC,B. subtilis ATCC6633,0.2 µg/mL
same,MIC,C. freundii ATCC8090,0.39 µg/mL
same,MIC,E. cloacae ATCC13407,25 µg/mL
same,MIC,E. coli CSH2 (RE45),0.05 µg/mL
same,MIC,E. coli CSH2 (RK1),0.05 µg/mL
same,MIC,E. coli NIHJ JC-2,0.05 µg/mL
same,MIC,K. pneumoniae IFO3317,0.025 µg/mL
same,MIC,K. pneumoniae No. 42,0.05 µg/mL
same,MIC,M. Morganii IFO3848,0.39 µg/mL
same,MIC,M. luteus ATCC 9341,0.05 µg/mL
same,MIC,P. aeruginosa NCTC10490,> 100 µg/mL
same,MIC,P. mirabilis IFO3849,0.2 µg/mL
same,MIC,P. vulugaris OX-19,0.39 µg/mL
same,MIC,S. aureus 167,50 µg/mL
same,MIC,S. aureus 195,3.13 µg/mL
same,MIC,S. aureus 209p JC-1,0.39 µg/mL
same,MIC,S. aureus Smith,0.39 µg/mL
same,MIC,S. epidemidis IAM1296,0.2 µg/mL
same,MIC,S. marcescens IAM1184,0.2 µg/mL
